Reference: the OPERA property sets (Mansouri et al. 2018)
Where a SMILES comes first, the peptide text is derived from it.

SMILES | logP
CCc1c(O)c(=O)ccn1CCCO | -0.44
COc1ccc(C(=O)NN=Cc2c(CO)ccc(C)c2O)cc1 | 3.34
COc1ccc(C2Cc3c(ccc(Br)c3OC)N(CCN(C)C)C(=O)C2OC(C)=O)cc1 (stereo not given) | 4.4
COC(=O)C(C)NP(=O)(OCC1C=CC(n2cc(C)c(=O)[nH]c2=O)O1)Oc1ccc(OC(F)(F)F)cc1 (stereo not given) | 1.86
CCCC(=O)OCC1OC(n2cc(I)c(=O)[nH]c2=O)CC1O (stereo not given) | 0.88
CC(NC(=O)C(NC(=O)C(N)Cc1ccccc1)C(C)C)C(=O)O (stereo not drawn) (H-Phe-Val-Ala-OH; configuration not given here) | -2.19
CC(C)CC(NC(=O)C(NC(=O)C(CO)NC(=O)C(CC(C)C)NC(=O)CN)C(C)C)C(=O)O (stereo not given) (H-GLSVL-OH; configuration not given here) | -1.64
OCC1OC(n2cnc3c(NCc4ccccc4)ncnc32)C(O)C1O (stereo not given) | 1.23
CC(=O)NC(CCCN(Cc1ccccc1)C(=O)N(C)N=O)C(=O)NCc1ccccc1 (stereo not given) | 2
CON(C)C(=O)Nc1ccc(C2CCCCC2)cc1 | 4.08
O=[n+]1cnn([O-])c2ccccc21 | -0.8
Cc1cn(C2C=CC(COP3(=O)OCc4cc(Cl)ccc4O3)O2)c(=O)[nH]c1=O (stereo not given) | 0.88
Cc1nc2c3c(c(C(=O)N4CCC4)cn2c1C)CCC(c1ccccc1)O3 (stereo not given) | 3.4
COc1cc(SC)ccc1-c1cn2cccnc2n1 | 2.44
Clc1cc(-c2ccc(Cl)c(Cl)c2Cl)cc(Cl)c1Cl | 7.6
CCCSc1cccc2nc(N)nc(N)c12 | 2.85
O=c1ccc2cc3ccsc3cc2s1 | 2.96
COc1ccc(C2Cc3cc(C(F)(F)F)ccc3N(CCN(C)C)C(=O)C2NC(C)=O)cc1 (stereo not given) | 3.6
c1ccc(Nc2ncnc3nc[nH]c23)cc1 | 2.12
Cc1cccc(C)c1OCC1CN=C(N)O1 (stereo not given) | 2
Cc1c(C)c2cc3ccoc3cc2oc1=O | 2.77
CC(C)OC(=O)C1(S(=O)(=O)c2ccc(Cl)cc2)CCCCC1 | 3.49
O=c1[nH]c(=O)n(Cc2ccc(Cl)cc2Cl)cc1F | 1.96
Cc1cccc(Cc2cnc[nH]2)c1C | 2.68
O=C1C=C(N2CCCCCC2)CN1c1ccc(Cl)cc1 | 3.4

SMILES | logP
O=C(O)CCCCON=C(c1cncnc1)c1cccc(C(F)(F)F)c1 | 3.26
COc1ccc(C2Cc3cc(C(F)(F)F)ccc3N(CCN(C)C)C(=O)C2CC(C)=O)cc1 (stereo not given) | 4.7
CCCc1nc(NC(=O)c2ccccc2)nc(N2CCOCC2)n1 | 1.61
Cc1ccc2c(c1)OCN(CCO[N+](=O)[O-])C2=O | 2.44
Nc1nnc(-c2cccc(Cl)c2Cl)c(N)n1 | 2.57
O=c1ccc2cc3ccoc3cc2s1 | 2.61
CON=C(C(=O)NC1C(=O)N2C(C(C)OC(=O)OC3CCCCC3)=CCSC12)c1csc(N)n1 (stereo not given) | 2.52
O=c1cc(-c2ccccc2)[nH]n1-c1ccc(Cl)cc1 | 2.6
CSCCC(NC(=O)C(N)Cc1ccccc1)C(=O)O (stereo not drawn) (H-Phe-Met-OH; configuration not given here) | -1.59
COCCOC(=O)C1=C(C)NC(C)=C(C(=O)OCCOC)C1c1cccc2c1OCO2 | 2.93
CCCNC(=O)CCC(=O)NCc1c(O)c(=O)cc(C)n1C | -0.7
CN(C)CCOc1c(Cl)cccc1Cl | 2.57
CC(C)(C)[N+]([O-])=Cc1ccncc1 | 0.4
Nc1nc(N)c2c(OCc3ccccc3)cccc2n1 | 2.82
CC(=O)NCCCCCN(O)C(=O)CCC(=O)NCCCCCN(O)C(=O)CCC(=O)NCCCCCN(O)C(C)=O | -0.03
C[C@@H]1CN(c2c(F)c(N)c3c(=O)c(C(=O)O)cn(C4CC4)c3c2F)C[C@H](C)N1 | -0.02
OCC1OC(Oc2ccc3cc(Br)ccc3c2)C(O)C(O)C1O (stereo not given) | 1.97
OC(CNCCCc1ccccc1)CON=C(C1CC1)C1CC1 (stereo not given) | 2.56
COc1ccc2c(c1)OCN(CCO[N+](=O)[O-])C2=O | 2.09
Clc1ccc(C2(Cn3cncn3)OCC3(CCC4OC4C3)CO2)c(Cl)c1 (stereo not given) | 1.87
CC(C)(CO)N=O | -0.52
CC(=O)C(Cc1ccccc1)=C(C)O | 1.89
CC(C)NC(=S)NS(=O)(=O)c1cnccc1NC1CCCCCC1 | 3.86
Cc1ccc(O)cc1N | 1.16
O=C(O)CCCCON=C(c1ccccc1)c1cncnc1 | 2.65

SMILES | logP
Cc1ccc(CO)c(C=NNC(=O)c2ccco2)c1O | 2.67
COCCOC(=O)C1=C(C)NC(C)=C(C(=O)OC(C)C)C1c1cccc2c1OCO2 (stereo not given) | 3.94
O=C(O)CCCON=C(c1ccccc1)c1cncnc1 | 2.2
COc1ccc(C2=NC(C)(C(=O)O)CS2)c(O)c1OC (stereo not given) | 1.4
O=C1c2ccccc2-c2nnc(-c3ccccc3O)cc21 | 3.15
NS(=O)(=O)c1ccncn1 | -0.2
O=C1c2cc(Cl)ccc2OCN1CCO[N+](=O)[O-] | 2.3
CCCC(=O)c1ccncc1 | 1.4
CCC(C)C(N)C(=O)NC(C(=O)NC(C(=O)NC(C(=O)NCC(=O)O)C(C)CC)C(C)CC)C(C)CC (stereo not given) (H-IIIIG-OH; configuration not given here) | -0.97
Cn1cnc([N+](=O)[O-])c1S(N)(=O)=O | -0.74
CCCCCOc1ccc(NC(=O)OCCN2CCCCC2)cc1 | 5.31
CCCCC(=O)C(CCCCOc1c(C)cc(C)cc1[N+](=O)[O-])n1cncn1 (stereo not given) | 3.9
O=S(CCl)c1ccccc1 (stereo not given) | 1.47
OC(CCCN1CCC(C(O)(c2ccccc2)c2ccccc2)CC1)c1ccccc1 (stereo not given) | 3.9
CCC1OC(Cn2cncn2)(c2ccc(Cl)cc2Cl)OC1C (stereo not given) | 3.41
O=C1c2ccccc2-c2nnc(C(F)(F)F)cc21 | 2.21
CCNc1nc(O)nc(NCC)n1 | 2.29
N#Cc1cccc(Cn2ccnc2)c1 | 1.01
COc1cccc(C(O)C(C(=O)O)c2ccc(-c3ccccc3)cc2)c1 (stereo not given) | 3.53
CC(C)NC(CO)C(O)c1ccccc1 (stereo not given) | 1.19
NC(Cc1cc(I)c(OCCc2ccc(O)cc2)c(I)c1)C(=O)O (stereo not given) | 2
COC(=O)C(C)NP(=O)(OCC1C=CC(n2cc(C)c(=O)[nH]c2=O)O1)Oc1cccc(I)c1 (stereo not given) | 1.78
Cc1ccc(Br)cc1F | 3.64
CC1CCC2CC(=O)N(CCc3ccccc3)C3OC4(C)CCC1C23OO4 (stereo not given) | 3.94
c1ccc2c(c1)OCC(CCc1ncc[nH]1)O2 (stereo not given) | 1.99

SMILES | logP
CC(C)CCC(=O)CC1c2ccccc2C(=O)N1c1ccc2ccc(Cl)nc2n1 (stereo not given) | 4.8
CCOP(=O)(OCC)C(C)(C)[N+]([O-])=Cc1cccnc1 | 0.41
NC(=O)Cc1ccc(O)cc1 | -0.09
CC1(C)N(O)C(c2ccc([N+](=O)[O-])cc2)=[N+]([O-])C1(C)C | 1.68
Cc1cccc(N2CC(N3CCOCC3)=CC2=O)c1 | 1.5
Nc1nnnn1-c1ccc2ccccc2c1 | 2.08
Cc1cccc(C)c1CCN | 2.38
Cc1cccc(C)c1/C=C/c1c[nH]cn1 | 3.35
O=C1CC=C2C3CC4N(CCC45c4ccccc4N1C25)C/C3=C\CO (stereo not given) | 1.37
O=c1cc(-c2ccccc2)oc2ccc(Cl)cc12 | 3.92
OCCCNc1[nH]cnc2ncnc1-2 | 0.11
CCOC(=O)c1cn2c(C)c(C)nc2c2c1CCC(c1ccccc1)O2 (stereo not given) | 5.5
CCOC(=O)C1=C(C)NC(C)=C(C(=O)OC)C1c1ccc(OC)c(OC)c1 (stereo not given) | 3.6
CC(=O)OCCCOC(=O)C(C)c1cccc(C(=O)c2ccccc2)c1 (stereo not given) | 3.6
COC(=O)c1c(N2CCOCC2)c(-c2ccc(Cl)cc2)cn1C(=O)c1ccccc1 | 5.5
Clc1nc(-c2ccccc2)nc2ccccc12 | 4.47
Nc1nc(N)nc(-c2ccc(SC(F)(F)F)cc2)n1 | 3.2
CS(=O)(=O)Nc1cccc(Cn2cnc3ccccc32)c1 | 2.08
CCCNC(=O)Cn1cccc(O)c1=O | -0.24
O=C1N=C(N2CCOCC2)CN1Cc1ccc(Br)cc1 | 1.4
CCOc1ccccc1NC(=O)OCCN1CCCCC1 | 3.59
COc1cccc(CNc2ncnc3nc[nH]c23)c1 | 2.1
CS(=O)c1ccc2c(c1)C(c1ccccc1)=NCC(=O)N2 (stereo not given) | 0.8
OCCNc1ncnc2c1ncn2C1OC(CO)C(O)C1O (stereo not given) | -1.13
CC(CO)CNc1[nH]cnc2ncnc1-2 (stereo not given) | 0.61

SMILES | logP
NC(=O)c1cccc(Cn2cccn2)c1 | 0.71
O=c1cc(CCl)occ1O | 0.64
COc1cccc(OCC2CN=C(N)O2)c1 (stereo not given) | 1.34
CNC(=S)NN=C(c1cccc([N+](=O)[O-])c1)c1ccccn1 | 2.14
CC(C)C(NC(=O)C(N)Cc1ccccc1)C(=O)O (stereo not drawn) (H-Phe-Val-OH; configuration not given here) | -1.68
CC(=O)OC1C(CCl)OC(n2cc(F)c(=O)[nH]c2=O)C1OC(C)=O (stereo not given) | 0.38
COC1CC(OC2C(C)OC(OC3CCC4(C)C(CCC5C4CC(O)C4(C)C(C6=CC(=O)OC6)CCC54O)C3)CC2OC)OC(C)C1OC1CC(O)C(O)C(C)O1 (stereo not given) | 2.14
OCCCCCNc1[nH]cnc2ncnc1-2 | 0.72
CCCCCCCNCc1ccc(C)cc1 | 5.12
NCCCOC1Cc2c(O)cc(O)cc2OC1c1ccc(O)c(O)c1 (stereo not given) | 0.52
CCC(=O)NCCCCCN(O)C(=O)CCC(=O)NCCCCCN(O)C(=O)CCC(=O)NCCCCCN(O)C(C)=O | 0.17
c1cc2cc3c(cc2cn1)OCO3 | 1.75
NC(Cc1ccccc1)C(=O)NC(Cc1c[nH]c2ccccc12)C(=O)O (stereo not given) | -0.79
COc1ccc(C2Cc3cc(OCc4ccccc4)ccc3N(CCN(C)C)C(=O)C2OC(C)=O)cc1 (stereo not given) | 5.4
CC(C)C(NC(=O)C(Cc1ccccc1)NC(=O)CNC(=O)CN)C(=O)NC(Cc1ccccc1)C(=O)O (stereo not given) (H-GGFVF-OH; configuration not given here) | -1.4
COC(=O)C=CCn1ccnc1[N+](=O)[O-] | 0.32
COC(=O)C(C)=CC1C(C(=O)OCc2cccc(C#N)c2)C1(C)C (stereo not given) | 3.83
O=C(NO)NN=Cc1cccc(C(F)(F)F)c1 | 1.64
COc1ccc(CCNCC(O)COc2ccc(-c3nc(Br)c[nH]3)cc2Cl)cc1OC (stereo not given) | 4.3
Nc1nnnn1-c1cccc([N+](=O)[O-])c1 | 0.67
O=C1c2ccccc2-c2nncc(-c3ccccc3)c21 | 2.8
CSCCC(NC(=O)C(Cc1ccccc1)NC(=O)CNC(=O)CNC(=O)C(N)Cc1ccc(O)cc1)C(=O)O (stereo not given) | -1.39
CCOP(=O)(OCC)C(C)(C)[N+]([O-])=Cc1ccncc1 | 0.32
CC(C)N(CC1CN=C(N)O1)C(C)C (stereo not given) | 0.98
Nc1nc(O)nc(Nc2ccccc2)n1 | 1.9
